Source: US11492325B2, “Compounds as inhibitors of sodium channels” (Human BioMolecular Research Institute, priority 2016, dated 2022)
Read-outs that look alike come from different tables or passages of the source.

Assays:
[1] = test system: cardiomyocytes derived from hiPSCs from a LQTS3 patient; settings: for LQT-EC50 (μM) Shortening: AP shortening
[2] = test system: normal human induced pluripotent stem cell (hiPSC) cardiomyocyte; assay: cells; settings: read-out: WT-EC50 (μM) Prolongation
[3] = test system: normal human induced pluripotent stem cell (hiPSC) cardiomyocyte; settings: for WT-Cessation Dose (μM): WT cardiomyocytes, cessation of beating; for WT-Fold Prolongation: APD; for WT-Fold Prolongation / WT-EAD Dose / Cessation of Beating / WT-Prolongation Dose: normal hiPSC cardiomyocytes
[4] = Metabolism in human hepatic S9
Procedure: (§1) A typical incubation contained rat, mouse, dog or human liver microsomes (0.4-0.5 mg of protein), 100 mM potassium phosphate buffer (pH7.4), 50 μM test compound, an NADPH-generating system consisting of 0.5 mM NADP^+, 0.5 mM glucose-6-phosphate, 1 IU/mL glucose-6-phosphate dehydrogenase, 1 mg/mL diethylenetriaminepentaaceticacid (DETAPAC), and 3 mM MgCl2 in a final incubation volume of 0.25 mL. […] After centrifugation at 3000 rpm for 5 min, the organic fraction was collected, the solvent was removed with a stream of argon and the residue was reconstituted in 125 μL of MeOH and 125 μL H2O, mixed thoroughly, centrifuged at 13,000 rpm for 5 min and analyzed by high performance liquid chromatography. Samples were run on a Hitachi D-7000 HPLC system using a L-7100 analytical pump, L-7400 UV-Visible variable wavelength detector, and L-7600 automatic sample injector. […] Disappearance of the analyte was monitored over time. A plot of the area under the curve for the normalized analyte versus time afforded the half-life values and kapp.
Microsomes contain CYPs and FMO metabolic enzymes. S9 contains soluble enzymes (i.e., aldehyde oxidase, MAO, etc.).

[5] = target: hERG potassium channel (IKr) (Homo sapiens, UniProt Q12809); assay: Automated patch clamp, hERG (IKr) expressed in CHO cells; settings: for IC50: hERG (IKr) IC50, CHO cells
[6] = target: Nav1.5 sodium channel transfected into HEK293 cells (Homo sapiens, UniProt Q14524); assay: in vitro
Procedure: (§2) This provided data to investigate the physiology and action of target compounds on individual ion channels. The assay used standardized protocols for culturing and conducting conventional whole cell recording that have been previously developed for both current and voltage-clamp to characterize action potentials using transfected cells. Briefly, the Nav1.5 sodium channel was transfected into HEK293 cells. […] Briefly, cells were plated on 0.1% gelatin-coated 35-mm plastic Petri dishes. […] Data was reported as IC50 values±STD (Table 1).

[7] = target: Nav1.5 sodium channel, peak current (INaP) (Homo sapiens, UniProt Q14524, form not given); assay: in vitro; settings: Peak Na+ (INaP) IC50
Procedure: as §2

[8] = test system: cardiomyocytes derived from hiPSCs from a LQTS3 patient; assay: cells; settings: Homo sapiens, Cardiomyocyte, read-out: LQT-IC50 (uM)-Shortening
[9] = test system: Male BALBc mice; settings: mice, 100 mg/kg; for behavioral effects at 100 mg/kg: enantiomers
Excerpt: Male BALBc mice (20-22 g) were used throughout these studies. The animals were maintained in a temperature-controlled room with 12-hr periods of light and darkness and had continuous access to water and animal food. […] Groups contained 2-4 animals.

[10] = Metabolic stability in human liver microsomes; format: in vitro ADME; settings: human, microsomes
Procedure: as §1

[11] = Chemical stability in PBS buffer at pH 7.4 or 3.0, 37° C.; format: physicochemical; settings: pH 3, 100 μM in PBS, 1% Ethanol, read-out: Half-Life @ pH 3.0 and 37° C.
Procedure: A typical incubation contained 100 μM of the test compound prepared in PBS buffer (pH 7.4 or 3.0, 50 mM) with 1% Ethanol. The test compounds were incubated at 37° C. An aliquot from incubations was taken at various times and injected onto an RP-HPLC system as described above. Disappearance of the analyte was monitored over time.

Sequence of hERG potassium channel (IKr) (Q12809 whole entry): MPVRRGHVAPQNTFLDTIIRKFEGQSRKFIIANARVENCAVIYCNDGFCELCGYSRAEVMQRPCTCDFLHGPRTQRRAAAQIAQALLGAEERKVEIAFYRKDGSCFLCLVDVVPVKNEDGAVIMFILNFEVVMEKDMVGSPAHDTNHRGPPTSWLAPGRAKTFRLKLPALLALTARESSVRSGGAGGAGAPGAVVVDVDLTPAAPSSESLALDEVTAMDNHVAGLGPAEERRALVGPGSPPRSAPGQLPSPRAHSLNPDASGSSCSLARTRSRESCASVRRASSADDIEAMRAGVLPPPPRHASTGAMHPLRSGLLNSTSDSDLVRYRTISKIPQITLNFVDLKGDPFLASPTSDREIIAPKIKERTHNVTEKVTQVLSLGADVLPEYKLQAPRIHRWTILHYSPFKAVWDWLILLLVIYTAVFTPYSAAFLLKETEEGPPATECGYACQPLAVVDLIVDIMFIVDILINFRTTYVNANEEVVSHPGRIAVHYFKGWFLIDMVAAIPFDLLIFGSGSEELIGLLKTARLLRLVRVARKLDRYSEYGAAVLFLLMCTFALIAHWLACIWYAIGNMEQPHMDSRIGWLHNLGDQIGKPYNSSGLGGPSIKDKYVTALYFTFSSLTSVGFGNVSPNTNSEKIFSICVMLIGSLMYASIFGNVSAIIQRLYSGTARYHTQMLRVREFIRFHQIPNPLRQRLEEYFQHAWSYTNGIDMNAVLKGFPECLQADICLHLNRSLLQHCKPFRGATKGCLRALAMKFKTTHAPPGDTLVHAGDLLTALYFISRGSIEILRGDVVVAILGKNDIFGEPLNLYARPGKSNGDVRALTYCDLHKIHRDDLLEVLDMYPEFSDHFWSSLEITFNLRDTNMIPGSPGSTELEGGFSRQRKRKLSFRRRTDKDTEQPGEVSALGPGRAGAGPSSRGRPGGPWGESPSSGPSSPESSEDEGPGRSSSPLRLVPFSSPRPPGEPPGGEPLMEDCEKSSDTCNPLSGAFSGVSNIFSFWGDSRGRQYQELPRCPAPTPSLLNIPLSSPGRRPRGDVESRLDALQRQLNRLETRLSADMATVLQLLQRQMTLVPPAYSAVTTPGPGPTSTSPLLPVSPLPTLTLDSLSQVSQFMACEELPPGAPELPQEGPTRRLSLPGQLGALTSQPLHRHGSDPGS

Compound | LQT-Fold Shortening ([1]; LQT-3 cardiomyocytes) | LQT-Shortening Dose (μM) ([1]; LQT-3 cardiomyocytes) | LQT-EC50 (μM) Shortening ([1]; LQT-3 cardiomyocytes) | EC50 [2] [µM] | IC50 [5] [µM] | DKr/NaL ([5]; ratio hERG IC50/late Na IC50) | DNaP/Kr ([5]; ratio peak Na IC50/hERG IC50) | LQT-Cessation Dose ([1]; LQT3 cardiomyocytes) | LQT-Fold Shortening ([1]; LQT3 cardiomyocytes) | DNap/NaL ([6]; ratio peak IC50/late IC50) | IC50 [7] [µM] | IC50 [8] [µM] | WT-Fold Prolongation [3] | further results
NC(COc1cnccc1C(F)(F)F)c1ccccc1 (stereo not drawn) [Compound 115] | Does Not Shorten | Does Not Shorten | Does Not Shorten | 25.7 |  |  |  |  |  |  |  |  |  | WT-Cessation Dose (μM) [3]: No cessation of beating
Cc1cccc(C)c1OC[C@@H](C)N [(R)-Mexiletine, reference compound] |  |  |  |  |  |  |  |  |  |  |  |  |  | Liver S-9, remaining after 1 hr ([4]; human liver S-9, 1 hr): >95% after 1 hr
COCCNC(COc1ccncc1)c1ccccc1 (stereo not drawn) [Compound 127] | Does Not Shorten | Does Not Shorten | Does Not Shorten | 97.7 |  |  |  |  |  |  |  |  |  | WT-Cessation Dose (μM) [3]: No cessation of beating
Cc1ccccc1OCC(C)N (stereo not drawn) [Compound 9, 1-(2-Methylphenoxy)propan-2-amine] |  |  |  |  | 98 | 1.9 | 1.7 | None | 1.28 | 3.1 | 162 | 0.76 | 2.363 | IC50 [6]: 52 µM; WT-EAD Dose [3]: 200 µM
Cc1cc(C)cc(OCC(N)c2ccccc2)c1.Cl (stereo in doubt) [(S)-70] |  |  |  |  |  |  |  |  |  |  |  |  |  | Behavior Effect (S)-enantiomer [9]: 2/4 lethargic; behavioral effects at 100 mg/kg [9]: Minor lethargy; Liver Microsomes, remaining after 1 hr ([10]; 1 h): >95% after 1 hr; Liver S-9, remaining after 1 hr ([4]; human, s9, 1 h): >95% after 1 hr
Cl.NC(COc1ccccc1C(F)(F)F)c1ccccc1 (stereo in doubt) [(S)-82] |  |  |  |  |  |  |  |  |  |  |  |  |  | Behavior Effect (S)-enantiomer [9]: 2/4 slightly lethargic; behavioral effects at 100 mg/kg [9]: Minor lethargy; Liver Microsomes T1/2 [10]: 6.08 h; Liver S-9, remaining after 1 hr ([4]; human, s9, 1 h): >95% after 1 hr
Cc1cccc(C)c1OCC(N)C1CC1 (stereo not drawn) [Compound 10] |  |  |  |  | 30 | 4.1 | 4.3 | 200 µM | 1.162 | 18.0 | 130 | 0.8 | 2.262 | IC50 [6]: 7.3 µM; WT-EAD Dose [3]: 66 µM
Cc1cc(C)c(OCC(N)c2ccccc2)cn1 (stereo not drawn) [Compound 120] | Does Not Shorten | Does Not Shorten | Does Not Shorten | 7.33 |  |  |  |  |  |  |  |  |  | WT-Cessation Dose (μM) [3]: No cessation of beating
Cc1cncc(OCC(N)c2ccccc2)c1 (stereo not drawn) [Compound 113] | Does Not Shorten | Does Not Shorten | Does Not Shorten | 7.24 |  |  |  |  |  |  |  |  |  | 
COCCNC(COc1cc(C(F)(F)F)cc(C(F)(F)F)c1)c1ccccc1.Cl (stereo not drawn) [Compound 80] |  |  |  |  | 16.8 | 16.5 | 2.7 | 133 µM | 1.636 | 44.2 | 45.1 | 6.59 | None | IC50 ([5]; Example 2): 16.8 µM; DKr/NaL ([5]; ratio, Example 2): 16.5; DNaP/Kr ([5]; ratio, Example 2): 2.7; DNap/NaL ([6]; ratio peak/late IC50, Example 2): 44.2; Cessation of Beating [3]: None; WT-Prolongation Dose [3]: None
NC(COc1ccccc1C(F)(F)F)c1ccccc1 (stereo not drawn) [Compound 27, 1-phenyl-2-(2-(trifluoromethyl)phenoxy)ethanamine] |  |  |  |  | 37.5 | 36.1 | 1.1 | 66 µM | 1.783 | 39.5 | 41.1 | > 0.8 | None | IC50 [6]: 1.04 µM; Cessation of Beating [3]: 66 µM; WT-Prolongation Dose [3]: None
Cc1ccccc1OCC(N)c1ccccc1 (stereo not drawn) [drawing 311] |  |  |  |  |  |  |  |  |  |  |  |  |  | half-life at 100 μM [11]: > 360 h
